Test results reported in BindingDB's records for patent US20240189315 (Boehringer Ingelheim International, 2024).

Target: Cyclic GMP-AMP synthase (Homo sapiens, UniProt Q8N884)
Experiment: in vitro human biochemical cGAS inhibition

Chain of Cyclic GMP-AMP synthase (Q8N884 whole entry): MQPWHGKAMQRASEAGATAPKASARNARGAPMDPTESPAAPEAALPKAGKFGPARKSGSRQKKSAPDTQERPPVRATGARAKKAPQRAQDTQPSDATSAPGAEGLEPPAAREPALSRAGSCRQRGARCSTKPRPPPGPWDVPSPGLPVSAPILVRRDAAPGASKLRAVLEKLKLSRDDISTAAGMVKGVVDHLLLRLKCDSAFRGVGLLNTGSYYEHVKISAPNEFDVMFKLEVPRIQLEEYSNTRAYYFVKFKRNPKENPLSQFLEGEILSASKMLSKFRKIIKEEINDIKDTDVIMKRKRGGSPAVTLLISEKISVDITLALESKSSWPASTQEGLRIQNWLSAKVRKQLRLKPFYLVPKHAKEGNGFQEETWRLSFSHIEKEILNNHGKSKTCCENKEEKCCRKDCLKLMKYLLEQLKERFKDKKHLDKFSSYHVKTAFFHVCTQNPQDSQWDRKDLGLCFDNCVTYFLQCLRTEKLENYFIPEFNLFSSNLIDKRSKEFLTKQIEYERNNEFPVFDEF

**Q.** How did the IC50 turn out when COC(=O)[C@@H]1C[C@H](Oc2ncc(Cl)cc2[C@@]2(F)CCS(=O)(=O)C[C@@H]2C)CN1c1nc(C(F)F)nc2c1oc1ccccc12 [US12043625, Example P02 (prodrug of Ex. 1.13)] was run?
**A.** Its IC50 is > 9.95 µM.

**Q.** Which IC50 does the source give for C[C@H]1CN2CC[C@]1(F)c1cc(Cl)cnc1O[C@H]1C[C@@H](C(=O)O)N(C1)c1nc(nc3c1oc1ccccc13)CCCCOC2=O [US20240189315, Example 35] here?
**A.** The IC50 was 0.027 µM.

**Q.** Which IC50 does the source give for COC(=O)[C@@H]1C[C@H](Oc2ncccc2N2CCOC3(COC3)[C@@H]2C)CN1c1nc(C(F)F)nc2c1oc1ccccc12 [US20240189315, Example P01 of PCT/EP2022/062480) (Prodrug of Ex. 4.04 of PCT/EP-2022/062480)] here?
**A.** The IC50 was > 9.96 µM.

**Q.** With COC(=O)[C@@H]1C[C@H](Oc2ncc(Br)cc2N2CCOC3(COC3)[C@@H]2C)CN1c1nc(C(F)(F)F)nc2c1oc1ccccc12 [US20240189315, Example P02 of PCT/EP2022/062480) (Prodrug of Ex. 1.10 of PCT/EP2022/062480)] as the compound, how does the IC50 read?
**A.** Its IC50 is > 9.95 µM.

**Q.** For COC(=O)[C@@H]1C[C@H](Oc2ncc(-c3cccnc3OC)cc2N2CCOC3(COC3)[C@@H]2C)CN1c1nc(C(F)(F)F)nc2c1oc1ccccc12 [US20240189315, Example P04 of PCT/EP2022/062480) (Prodrug of Ex. 3.14 of PCT/EP2022/062480)], which IC50 is on record?
**A.** The IC50 was > 9.95 µM.
